Results taken from patent US20180105492A1, “COMPOUNDS DERIVED FROM 3-ALKYLAMINE-1H-INDOLYL ACRYLATE AND THEIR USE IN THE TREATMENT OF NEURODEGENERATIVE DISEASES” (FUNDACION PARA LA INVESTIGACION BIOMEDICA DEL HOSPITAL …, priority 2014, published 2018).

What was measured:
SH-SY5Y cells = test: Neuroprotection against rotenone/oligomycin A, pre-incubation model, MTT; format: cell-based; conditions: Homo sapiens, compound 1 μM pre-incubation 24 h, then Rot/Olig (30/10 μM); for viability at 1 µM: read-out: % Survival
Protocol: SH-SY5Y cells [ECACC 94030304], in 5 to 16 passage after defreezing were maintained in Eagle media modified by Dulbecco (DMEM) containing 15 non-essential amino acids and supplemented with 10% fetal bovine serum, 1 mM glutamine, 50 units/mL penicillin/streptomycin (obtained from GIBCO, Madrid, Spain). Cells were seeded in flasks containing supplemented media and were maintained in an incubator at 37° C. and 5% CO2. 1:4 passes were performed twice per week. For the experiments, cells were seeded in 24 well-plates at a density of 2×10^5 cells/well, or in 96 well-plates at a density of 8×10^4 cells/well. For cytotoxicity experiments, cells were treated with the compounds before confluence with DMEM media supplemented with fetal bovine serum 1%.
In order to assess cellular viability, we measured the metabolic reduction of 3-(4,5-Dimethylthiazol-2-yl)-2,5 diphenyltetrazolium bromide (MTT). MTT is an indirect assay to measure cellular viability. It is a colorimetric method based on the reduction of 3-(4,5-Dimethylthiazol-2-yl)-2,5 diphenyltetrazolium. This process is performed by the mitochondrial enzyme succinate-dehydrogenase present in metabolic active cells. Thus, the water-soluble yellow MTT (tetrazolium salt) is transformed into a insoluble purple compound (formazan). Quantity of living cells is directly proportional to the quantity of formazan (Mosmann, 1983, J Immunol Methods, 65: 55-63). […] Therefore, with this assay we can measure cellular surviving and proliferation and also, we can determine the cytotoxicity of potential neuroprotective compounds. In order to assess cellular viability in SH-SY5Y cell line, we added 30 μl/well of MTT (5 mg/mL) and after 2 h, medium was carefully removed to avoid losing the formazan and was diluted in 300 μL of DMSO. Afterwards, samples were transferred to a 96 well-plate and the absorbance was measured at 570 nm using a absorbance/fluorescence reader FluoStar optima®. Every MTT assay was performed in triplicates. Absorbance values obtained with the toxic alone were subtracted to the absorbance values obtained in basal conditions (without treatment). That result was considered as the 100% of cell death and the values obtained with the compounds in the presence of the toxic stimulus were normalized as percentages of that value. For determining the surviving percentage, those percentages of cell death were subtracted to 100.
Neuroprotection elicited by the compounds of the invention 1-16: The activation of Nrf2-ARE pathway by different compounds exerts neuroprotective effects against toxic models based on oxidative stress via the expression of cytoprotective genes. […] We evaluated the neuroprotective potential of the compounds using the human neuroblastoma cell line using the following cytotoxicity models: 1) oxidative stress induced by rotenone+oligomycin, both blockers of the electron transport chain as previously described (Halliwell, 1992, J Neurochem, 59: 1609-23, Newhouse y col., 2004, Toxicol Sci, 79: 137-46), and 2) cytotoxicity induced by the electrophilic compound Menadione. This compound produces oxidative stress after being metabolized by microsomal enzymes in the cell which produces hydroxyl radical and oxygen reactive species. As a consequence, there is a depolarization of mitochondrial membrane generating a release of apoptotic factors such as cytochrome c, and activating the caspase cascade (Loor y col., 2010, Free Radic Biol Med, 49: 1925-36, Chuang y col., 2002, Cancer Res, 62: 6246-54). Caspase 3 activation can produce the lysis of proteins and induce DNA fragmentation, leading to cell death (Gerasimenko y col., 2002, J Cell Sci, 115: 485-97).
For this study we propose a protocol in which the cells are pre-incubated with each of the derivatives at 1 μM for 24 h. After the pre-incubation period, the medium was removed and replaced by culture medium with the rotenone/oligomycin-A (30 μM and 10 μM, respectively) toxic mixture. […]

[1] = Oxygen radical absorbance capacity (ORAC), free radical scavenger capacity; conditions: fluorescein/AAPH, pH 7.4, trolox = 1
Protocol: In order to study the potential antioxidant effect of the compounds of the invention, we performed an oxygen radical absorbance capacity (ORAC) experiment.
For studying the free radical scavenger capacity, we measured the degree peroxide radical inhibition. Thus, scavenger capacity is measured as trolox equivalents and includes the disappearance of free radicals over time and the decrease of oxidative damage at the end of the experiment. The protocol used is based in the protocol developed by Ou and col. (Ou y col., 2001, J Agric Food Chem, 49: 4619-26) partially modified by Dávalos and col. (Davalos y col., 2004, J Agric Food Chem, 52: 48-54). The reaction was performed in phosphate tampon 75 mM (pH 7.4), with a final volume of 200 μL. 150 μL of fluorescein (final concentration of 70 nM) with 25 μL the compound of study at the desired concentration in triplicates, using surface transparent 96 well black plates for measuring fluorescence.
The mixture was pre-incubated during 15 min at 37° C. and, afterwards, 25 μL of a solution containing 2,2′-Azobis(2-amidinopropane) dihydrochloride (AAPH) (final concentration; 12 mM) were rapidly added. Fluorescence was immediately measured using a plate reader fluostar optima, using the filters of emission and excitation of […], respectively. Fluorescence intensity was measured during 90 min. Each compound was measured at 6 different concentrations. In the assay, fluorescein+AAPH in phosphate tampon was added as a blank and a calibration curve was performed using Trolox (1-8 μM). Every variable was prepared in duplicates and at least three independent experiments were performed for each compound. The curves of the compounds (F.I.—time) were normalized respect to the curve of the blank for each experiment and area under the curve (AUC) of the decreasing in fluorescence was calculated. AUC value of each compound was calculated subtracting the AUC of the blank. Regression curves between AUC and concentration of the compound were calculated for each of the samples. ORAC values were expressed as trolox equivalents with respect to the calibration curve of each assay, where the trolox value was considered 1.

Compound	percent protection against toxin-induced cell death at 1 µM (SH-SY5Y cells) [%]	viability at 1 µM (SH-SY5Y cells) [%]	ORAC (Trolox eq.) [1] [Trolox eq.]
C/C=C/C(=O)Oc1ccc2[nH]cc(CCNC(C)=O)c2c1 [Compound 1, 3-(2-acetamidoethyl)-1H-indol-5-yl (E)-2-butenoate]	28.5	70.4 ± 4.03	8.64 ± 1.98
CC(=O)NCCc1c[nH]c2ccc(OC(=O)/C=C/c3ccccc3)cc12 [Compound 2, 3-(2-acetamidoethyl)-1H-indol-5-yl cinnamate]	34.7	72.7 ± 3.59	4.30 ± 0.50
CC(=O)NCCc1c[nH]c2ccc(OC(=O)/C=C/c3ccc(C)cc3)cc12 [Compound 3, 3-(2-acetamidoethyl)-1H-indol-5-yl (E)-3-(4-methylphenyl)acrylate]	20.5	67 ± 3.21	4.44 ± 0.51
COc1ccccc1/C=C/C(=O)Oc1ccc2[nH]cc(CCNC(C)=O)c2c1 [Compound 4, 3-(2-acetamidoethyl)-1H-indol-5-yl (E)-3-(2-methoxyphenyl)acrylate]	19	67.1 ± 2.61	3.02 ± 0.20
COc1cccc(/C=C/C(=O)Oc2ccc3[nH]cc(CCNC(C)=O)c3c2)c1 [Compound 5, 3-(2-acetamidoethyl)-1H-indol-5-yl (E)-3-(3-methoxyphenyl)acrylate]	27.1	70.2 ± 2.42	3.52 ± 0.27
COc1ccc(/C=C/C(=O)Oc2ccc3[nH]cc(CCNC(C)=O)c3c2)cc1 [Compound 6, 3-(2-acetamidoethyl)-1H-indol-5-yl (E)-3-(4-methoxyphenyl)acrylate]	29.8	70 ± 3.04	3.51 ± 0.27
CC(=O)NCCc1c[nH]c2ccc(OC(=O)/C=C/c3ccc(O)cc3)cc12 [Compound 7, 3-(2-acetamidoethyl)-1H-indol-5-yl (E)-3-(4-hydroxyphenyl)acrylate]	32.5	71.5 ± 4.92	9.21 ± 0.81
COc1cc(/C=C/C(=O)Oc2ccc3[nH]cc(CCNC(C)=O)c3c2)ccc1O [Compound 8, 3-(2-acetamidoethyl)-1H-indol-5-yl (E)-3-(4-hydroxy-3-methoxyphenyl)acrylate]	37	74 ± 3.13	8.04 ± 0.66
CC(=O)NCCc1c[nH]c2ccc(OC(=O)/C=C/c3ccc(F)cc3)cc12 [Compound 9, 3-(2-acetamidoethyl)-1H-indol-5-yl (E)-3-(4-fluorophenyl)acrylate]	21.5	67.4 ± 2.13	3.44 ± 0.67
CC(=O)NCCc1c[nH]c2ccc(OC(=O)/C=C/c3ccc(Br)cc3)cc12 [Compound 10, 3-(2-acetamidoethyl)-1H-indol-5-yl (E)-3-(4-bromophenyl)acrylate]	30.2	71.1 ± 2.61	2.53 ± 0.18
CC(=O)NCCc1c[nH]c2ccc(OC(=O)/C=C/c3ccc(Cl)cc3)cc12 [Compound 11, 3-(2-acetamidoethyl)-1H-indol-5-yl (E)-3-(4-chlorophenyl)acrylate]	33.5	73.2 ± 3.12	2.91 ± 0.32
CC(=O)NCCc1c[nH]c2ccc(OC(=O)/C=C/c3ccc(Cl)c(Cl)c3)cc12 [Compound 12, 3-(2-acetamidoethyl)-1H-indol-5-yl (E)-3-(3,4-dichlorophenyl)acrylate]	25.3	70.1 ± 4.35	5.37 ± 0.38
CC(=O)NCCc1c[nH]c2ccc(OC(=O)/C=C/c3ccccc3C(F)(F)F)cc12 [Compound 13, 3-(2-acetamidoethyl)-1H-indol-5-yl (E)-3-(2-(trifluoromethyl)phenyl)acrylate]	22.1	67 ± 3.01	3.33 ± 0.28
CC(=O)NCCc1c[nH]c2ccc(OC(=O)/C=C/c3cccc(C(F)(F)F)c3)cc12 [Compound 14, 3-(2-acetamidoethyl)-1H-indol-5-yl (E)-3-(3-(trifluoromethyl)phenyl)acrylate]	34.9	72.5 ± 2.92	4.13 ± 0.39
CC(=O)NCCc1c[nH]c2ccc(OC(=O)/C=C/c3ccc(C(F)(F)F)cc3)cc12 [Compound 15, 3-(2-acetamidoethyl)-1H-indol-5-yl (E)-3-(4-(trifluoromethyl)phenyl)acrylate]	37.5	73.4 ± 3.31	3.97 ± 0.38
CC(=O)NCCc1c[nH]c2ccc(OC(=O)/C=C/c3ccc([N+](=O)[O-])cc3)cc12 [Compound 16, 3-(2-acetamidoethyl)-1H-indol-5-yl (E)-3-(4-nitrophenyl)acrylate]	23	68.5 ± 2.88	4.12 ± 0.49
COc1ccc2[nH]cc(CCNC(C)=O)c2c1 [Melatonin, reference compound]	31.6	71.8 ± 2.81	–
